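Protocol summary: plate cells (96-well), add compound at 5 concentrations, incubate 48 h, interpolate endpoints linearly. GI50: concentration for 50% inhibition of growth.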 Activity calls are given as the source filed them. Rule as the data show it: active = GI50 up to about 1.1 µM and inactive = higher.
Legend:
Assay in all cases: NCI anticancer screen, dose series, 48 h
NCI-H226 = tested on: NCI-H226
MDA-MB-435 = tested on: MDA-MB-435
LOX IMVI = tested on: LOX IMVI
SF-295 = tested on: SF-295
M19-MEL = tested on: M19-MEL
Hs-578T = tested on: Hs-578T
ACHN = tested on: ACHN
M14 = tested on: M14
SR = tested on: SR
CAKI-1 = tested on: CAKI-1
PC-3 = tested on: PC-3
DU-145 = tested on: DU-145
MCF7 = tested on: MCF7
NCI/ADR-RES = tested on: NCI/ADR-RES
SNB-78 = tested on: SNB-78
T47D = tested on: T47D
KM-20L2 = tested on: KM-20L2
DMS-273 = tested on: DMS-273
A498 = tested on: A498
HL-60 = tested on: HL-60

SMILES	GI50 (NCI-H226)	GI50 (MDA-MB-435)	GI50 (LOX IMVI)	GI50 (SF-295)	GI50 (M19-MEL)	GI50 (Hs-578T)	GI50 (ACHN)	GI50 (M14)	GI50 (SR)	GI50 (CAKI-1)	GI50 (PC-3)	GI50 (DU-145)	GI50 (MCF7)	GI50 (NCI/ADR-RES)	GI50 (SNB-78)	GI50 (T47D)	GI50 (KM-20L2)	GI50 (DMS-273)	GI50 (A498)	GI50 (HL-60)
CC(C)(C)C(=O)OCC1C(=O)OCC1C(=O)N1Cc2cc3ccccc3nc2C1 (stereo not given)	6.56 µM (inactive)	3.9 µM (inactive)	4.34 µM (inactive)	14.3 µM (inactive)	3.54 µM (inactive)	15.3 µM (inactive)	2.36 µM (inactive)	2.8 µM (inactive)	757 nM (active)	1.28 µM (inactive)	10.9 µM (inactive)	16.4 µM (inactive)	3.47 µM (inactive)	4.92 µM (inactive)	1.53 µM (inactive)	2.38 µM (inactive)	6.07 µM (inactive)	3.04 µM (inactive)	13.2 µM (inactive)	0.748 µM (active)
CC(=O)[C@H]1CCC2[C@@H]3CC=C4C(O)C(OS(=O)(=O)O)CC[C@]4(C)C3CC[C@@]21C (stereo not given in full)	> 100 µM (inactive)	–	> 100 µM (inactive)	> 100 µM (inactive)	> 100 µM (inactive)	–	–	–	–	> 100 µM (inactive)	–	–	> 100 µM (inactive)	> 100 µM (inactive)	> 100 µM (inactive)	–	> 100 µM (inactive)	> 100 µM (inactive)	> 100 µM (inactive)	> 31.6 µM (inactive)
NC1CCCCC1	–	–	506 µM (inactive)	–	187 µM (inactive)	–	–	–	–	–	–	–	199 µM (inactive)	> 562 µM (inactive)	292 µM (inactive)	–	192 µM (inactive)	189 µM (inactive)	> 562 µM (inactive)	135 µM (inactive)
NC(Cc1c[nH]c2ccccc12)C(=O)O (stereo not drawn) [DL-TRYPTOPHAN]	30 µM (inactive)	–	> 300 µM (inactive)	> 300 µM (inactive)	> 300 µM (inactive)	–	–	–	–	> 300 µM (inactive)	–	–	> 300 µM (inactive)	> 300 µM (inactive)	> 300 µM (inactive)	–	> 300 µM (inactive)	> 300 µM (inactive)	> 13.9 µM (inactive)	> 300 µM (inactive)
CC1[C@@H]2CC=C3C4CCC5Cc6nc7c(nc6C[C@@]5(C)C4CC(=O)[C@]32CO[C@@]1(O)C(O)CC(C)(C)O)CC1CCC2C3=C[C@H]4O[C@@]5(O[C@@](C)(CO)C[C@@H]5O)C(C)[C@@]4(O)[C@]3(C)[C@@H](O)CC2[C@]1(C)C7 (stereo not given in full)	0.00622 µM (active)	–	0.0069 µM (active)	< 0.00036 µM (active)	0.237 µM (active)	–	–	–	–	0.0132 µM (active)	–	–	0.0109 µM (active)	0.612 µM (active)	0.00146 µM (active)	–	0.0069 µM (active)	< 0.00036 µM (active)	0.00108 µM (active)	< 0.00036 µM (active)
